# Measured values taken from patent US10526634B2, “Cell line for screening influenza virus polymerase assembly inhibitor and construction method thereof” (Suzhou Institute of Systems Medicine, priority 2015, dated 2020).
# Tested on: PA/PB1 HEK293T (Teton) cell line
# Assay: Dox-controlled inducible PA/PB1 expression, luciferase activity and Western blotting
# Assay type: cell-based
# Settings: Dox 300 ng/mL, 16 h, PA/PB1 HEK293T (Teton) cells
# Method: To detect the influence of Doxycycline (Dox) (purchased from Sigma) on controlled inducible PA/PB1 expression, 100,000 PA/PB1 HEK293T (Teton) cells and 300 μL DMEM complete medium were plated in each well of a 48 well plate. After 24 h, Dox was added at concentrations of 0, 10, 30, 100, 300 ng/mL respectively. After 16 h, culture medium in supernatant was removed, and lysis was performed on ice for 10 min using 80 μL renilla luciferase lysate (purchased from Promega, E2820), lysate was mixed by pipetting, 50 μL cell lysate was transferred into a plate for luciferase detection (purchased from PE), 20 μL renilla luciferase substrate (purchased from Promega, E2820) was added into each well, and luciferase activity was detected by a microplate reader (purchased from Bio-Tek, SynergyH1). The remaining 30 μL lysate was used for immune blotting (Western Blotting), the primary antibody used was Anti-Gluc (purchased from NEB), the secondary antibody used was HRP-conjugated Donkey Anti-Rabbit (purchased from Jackson), and expression of PA/PB1 with Gluc fusion tag could be detected by a scanner (purchased from Bio-rad).
# When Dox was not added into the PA/PB1 HEK293T (Teton) cell line, luciferase activity of PA/PB1 interaction was the background. […] When Dox was added at a concentration of 300 ng/mL, the difference between its signal value and the background signal value was up to 200 times.
structure (smiles),measurement,value
"C[C@H]1c2cccc(O)c2C(=O)C2=C(O)[C@]3(O)C(=O)C(C(N)=O)=C(O)[C@@H](N(C)C)[C@@H]3[C@@H](O)[C@@H]21 [Dox, Doxycycline]",difference between signal value and background signal value (luciferase activity of PA/PB1 interaction),up to 200 times
